The source of these data is patent US20050256132A1, “Use of ER selective NF-kB inhibitors for the treatment of sepsis” (priority 2003, published 2005).

One data set concerns ER/IL-6. The data set is described as follows: Endothelial Cell ER/IL-6 Assay, IL-6 promoter luciferase (Table 2). It is filed as cell-based, human. Conditions: Homo sapiens, HAECT1, ERα infected HAECT-1 cells, IL-1β; for Emax: read-out: IL6 luc % Efficacy; for IC50: read-out: IL6 luc IC50. Put shortly:
(§1)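 One lysate gave both read-outs: luciferase for ER/IL-6 and A340 rate after CK reagent for CK, with four-parameter logistic IC50/EC50. Cells were HAECT-1 aortic endothelial cells carrying adenoviral human ERα (or none), dosed […] at 34 °C from 2× stocks containing 2 ng/ml IL-1β and IL-6(1250 bp)-Luc adenovirus.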

Data set [1] relates to CK. Briefly: Creatine kinase assay in ERα infected HAECT-1 cells (Table 2). It is filed as cell-based, human. Conditions: Homo sapiens; for Emax: HAECT1, read-out: CK % Efficacy. Put shortly: as §1
In the next data set the test system is Creatine Kinase. The data set is described as follows: Creatine kinase expression in Ad5-wt-ERα infected HAECT-1 cells (Table 1). It is filed as cell-based, human. Conditions: Homo sapiens, HAECT1, read-out: Creatine Kinase EC50. On the procedure: T-175 flasks of 100% confluent HAECT-1 cells (immortalized human aortic endothelial cells) were washed with 8 mL of HBSS (HEPES buffered saline solution) and infected for four hours with 6 mL of a 1:10 dilution of Ad5-wt-hERα virus (an adenovirus transfection vector that mediates CMV promoter driven expression of human ERα) in phenol red free Endothelial Cell Basal medium (Clonetics, San Diego Calif., Catalog # CC-3129) containing 0.25% bovine serum albumin (EBM-BSA). After four hours, cells were washed with EBM-BSA and incubated overnight in the same medium. Following overnight incubation, cells were washed with EBM-BSA and infected for 2 hours with 6 mL of a 1:10 dilution of Ad5-3x(NF-κB).Luc virus (Adenovirus luciferase expression vector driven by 3 repeats of the MHC NF-κb site 5′ to the thymidine kinase promoter) in EBM-BSA. […]
ERα infected HAECT-1 cells or control cells were thawed, diluted 42× in warm EBM-BSA, plated into 96-well plates at 0.1 mL/well and incubated for 4 hours at 34° C. […] Luciferase was determined on a Wallac Victor Luminometer (Gaithersburg, Md.) using 10 μL of lysate and mixing with 100 μL of Promega Luciferase Assay reagent. Creatine kinase was determined from the rate of increase in A340 following addition of 100 μL of CK assay reagent (Sigma, cat. No 47-10) to the remainder of the cell lysate. […]

The test system of data set [2] is CK. Briefly: CK activity in lysate of ERα expressing HAECT-1 cells. It is filed as cell-based, human. Conditions: FIG. 1D. On the procedure:
(A) The effect of compound 67 on NF-κB mediated luciferase reporter activity in HAECT-1 cells expressing ERα. […] (C) The effect of compound 67 on the human IL-6 promoter luciferase reporter activity in HAECT-1 cells expressing either ERα (squares) or ERβ (diamonds). (D) The remaining lysate from (A) was used to determine CK activity.
(§2) HAECT-1 cells (Chadwick C C, et al., Proc Natl Acad Sciences, 2005, 102(7): 2543-2548) were cultured in EGM (GIBCO, Rockville, Md.) containing 10% FBS, 1% GlutaMAX and 0.1% Antimycotic-Antibiotic in Falcon T-175 culture flasks at 34° C. in 5% CO2 and infected for four hours with Ad5-wt-ER virus. After overnight recovery, the cells were infected for 2 hours with the Ad5-3x(NFκB).Luc or Ad5-IL6.Luc virus. Compound 67 and 2 ng/ml IL-1 were added to the cells for 15-20 h and the cell lysate was assayed for luciferase activity and evaluated for CK expression (Stanbio Laboratories, Texas). The values are reported as mean±SEM with n=4 from at least 3 independent experiments.

In the next data set the test system is NF-κB. The data set is described as follows: IL-1β stimulated NF-κB reporter activity in ERα expressing HAECT-1 cells. Conditions: 1 μM ICI, 1 μM compound 67, FIG. 1B. It is filed as cell-based, human. Here is the method:
as §2

`COc1ccccc1[C@H](c1cccc2ccccc12)[C@@](C)(C#N)C(=O)N1CCN(CCN(C)C)CC1` [Example 216, (2S)-3-{4-[2-(dimethylamino)ethyl]piperazin-1-yl}-2-[(S)-(2-methoxyphenyl)(1-naphthyl)methyl]-2-methyl-3-oxopropanenitrile]: the melting point is 84 to 85 °C. Also, the Emax in the data set on ER/IL-6 is 51%. In the data set with CK [1], the Emax was -21%.
For `COC[C@](C#N)(C(=O)N1CCN(c2cnccn2)CC1)[C@H](c1ccccc1OC)c1cccc2ccccc12` [Example 223, (2S,3S)-2-(methoxymethyl)-3-(2-methoxyphenyl)-3-(1-naphthyl)-2-[(4-pyrazin-2-ylpiperazin-1-yl)carbonyl]propanenitrile], the melting point was determined as 149 °C. Besides, in the data set on ER/IL-6, the Emax was 154% and the IC50 was found to be 38 nM. The same compound gave a concentration giving a half-maximal response (EC50) in the data set with CK [1] (HAECT1) of 318 nM. The Emax with CK [1] was found to be 24%.
On to `COC[C@@](C#N)(C(=O)N1CCN(c2cnccn2)CC1)[C@@H](c1ccccc1OC)c1cccc2ccccc12` [Example 224, (2R,3R)-2-(methoxymethyl)-3-(2-methoxyphenyl)-3-(1-naphthyl)-2-[(4-pyrazin-2-ylpiperazin-1-yl)carbonyl]propanenitrile], for which the melting point was 150 °C. For the same compound, in the data set with ER/IL-6, the Emax is 77% and the half-inhibitory concentration (IC50) was 832 nM. Moreover, in the data set on CK [1], the Emax was -14%.
As for `C[C@]12CC[C@@H]3c4ccc(O)cc4CC[C@H]3[C@@H]1CC[C@@H]2O` [Example E2, 17β-estradiol, reference compound], the EC50 is 5.8 nM in the data set with Creatine Kinase and 2 nM in the data set with CK [2] (Homo sapiens, HAECT1). Moreover, the “stimulation of CK activity” value with CK [2] was “approximately 1.7 fold”.
For the compound `C[C@]12CC[C@@H]3c4ccc(O)cc4C[C@@H](CCCCCCCCC[S+]([O-])CCCC(F)(F)C(F)(F)F)[C@H]3[C@@H]1CC[C@@H]2O` (stereo partly shown) [ICI 182,780, reference compound], in the data set with NF-κB, the “antagonism of the activity of compound 67 on NF-κB reporter” value was “effectively antagonized”.

What is called melting point is the temperature of the solid-liquid transition. A word on the IC50: it is the concentration that inhibits the measured activity by half. In general, EC50 refers to the concentration needed to bring the measured effect to its halfway point.
